Test systems include MDA-N; MDA-MB-435; A549 NSCLC; MDA-MB-231 breast; COLO 205 colon; KM12 colon; SF-295 CNS; HL-60(TB) leukemia; SN12C renal; SK-MEL-5 melanoma.
Holding throughout (experiment): DTP human tumour cell line panel, 48 h

SMILES strings stand for the structures. Values after ≈ are worked out from the molar mass of the structure shown.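 Where inhibition never reached the appropriate level, the endpoint shown equals the highest concentration tested. Otherwise, values were interpolated linearly from a five-concentration, 48-hour dose response in 96-well plates. GI50 marks 50% less growth. Definition used: TGI = concentration required for complete inhibition of growth.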 A value given as a limit tells only on which side of the number the result lay.

As to `O=[n+]1c2c(n([O-])c3ccccc31)-c1cccc3cccc-2c13`, the TGI in the assay on MDA-N, with MDA-MB-435, in the assay on A549 NSCLC, in the assay with MDA-MB-231 breast, with COLO 205 colon and in the assay with KM12 colon was more than 100 µM in each case. In addition, the total growth inhibition concentration (TGI) in the assay on SF-295 CNS, with HL-60(TB) leukemia, with SN12C renal and with SK-MEL-5 melanoma was more than 100 µM throughout.

Consider `COc1ccc(N=c2ssc(C(=S)Nc3ccc(OC)cc3)c2S)cc1`, for which the concentration for total growth inhibition (TGI) in the assay with MDA-N, in the assay on MDA-MB-435, in the assay on A549 NSCLC, in the assay with MDA-MB-231 breast, with COLO 205 colon and in the assay with KM12 colon was more than 100 µM each time. The concentration for total growth inhibition (TGI) with SF-295 CNS, in the assay with HL-60(TB) leukemia, with SN12C renal and with SK-MEL-5 melanoma was more than 100 µM in each case.

For the molecule `C[C@]12CCC(=O)C=C1CC[C@@H]1[C@@H]2[C@@H](O)C[C@@]2(C)[C@H]1CC[C@]2(O)C(=O)CO`, the TGI with MDA-N, in the assay with MDA-MB-435, in the assay with A549 NSCLC, in the assay with MDA-MB-231 breast, in the assay with COLO 205 colon and in the assay on KM12 colon was more than 100 µM each time. For the same molecule, the TGI in the assay on SF-295 CNS, in the assay on HL-60(TB) leukemia, in the assay on SN12C renal and with SK-MEL-5 melanoma was more than 100 µM in each case.

On to `CN(C)CCn1c(=O)c2ccc3c4c(nn3CCN(C)C)c3cc(N)ccc3n(c1=O)c24`, for which the TGI in the assay on MDA-N was 0.0752 µM; with MDA-MB-435, 0.0654 µM; in the assay on A549 NSCLC, 0.114 µM; with MDA-MB-231 breast, 0.195 µM; in the assay with COLO 205 colon, 0.199 µM; in the assay on KM12 colon it was 0.63 µM. In addition, the TGI in the assay on SF-295 CNS was found to be 0.584 µM; with HL-60(TB) leukemia, 0.506 µM; in the assay on SN12C renal, 0.069 µM; in the assay with SK-MEL-5 melanoma, 0.237 µM.

With `CC1(C)CC(=O)C2=C(C1)NC(SSC1=C(C#N)C(c3ccc(F)cc3)C3=C(CC(C)(C)CC3=O)N1)=C(C#N)C2c1ccc(F)cc1` (stereo not given), the GI50 is 27.2 µg/mL (≈ 41.5 µM) in the assay on MDA-N; 26.2 µg/mL (≈ 40 µM) in the assay with MDA-MB-435; 15 µg/mL (≈ 22.9 µM) in the assay with A549 NSCLC; 29 µg/mL (≈ 44.2 µM) with MDA-MB-231 breast; 29.1 µg/mL (≈ 44.4 µM) with COLO 205 colon; 52.9 µg/mL (≈ 80.7 µM) with KM12 colon. Moreover, the GI50 is 150 µg/mL (≈ 229 µM) in the assay on SF-295 CNS, 47.1 µg/mL (≈ 72 µM) in the assay on HL-60(TB) leukemia, 27.9 µg/mL (≈ 42.6 µM) in the assay on SN12C renal and 22.9 µg/mL (≈ 35 µM) in the assay with SK-MEL-5 melanoma. For the same molecule, the TGI was 48.4 µg/mL in the assay with MDA-N; 46.9 µg/mL with MDA-MB-435; 15 µg/mL in the assay with A549 NSCLC; 51.7 µg/mL with MDA-MB-231 breast; 55.8 µg/mL in the assay with COLO 205 colon; more than 150 µg/mL in the assay with KM12 colon. In addition, the TGI with SF-295 CNS is more than 150 µg/mL; in the assay on HL-60(TB) leukemia, more than 150 µg/mL; in the assay with SN12C renal it was 52.1 µg/mL; in the assay on SK-MEL-5 melanoma it was 44.7 µg/mL.

With `COc1c2c(cc3c1C(O)N1CC[C@]34[C@H]3O[C@H]3[C@H](OC)C[C@@H]14)OCO2` (stereo not given in full), the concentration for total growth inhibition (TGI) in the assay on MDA-N is 67.8 µM; with MDA-MB-435, more than 100 µM; in the assay on A549 NSCLC, more than 100 µM; with MDA-MB-231 breast it was more than 100 µM; in the assay on COLO 205 colon, more than 100 µM; in the assay on KM12 colon it was more than 100 µM. Also, the TGI was 71.7 µM in the assay on SF-295 CNS, 3.53 µM in the assay on HL-60(TB) leukemia, more than 100 µM with SN12C renal and more than 100 µM in the assay with SK-MEL-5 melanoma.

With `CN(CCCNC(=O)c1cn(C)c2c1ccc1cc(Cl)c(Cl)cc12)CCCNC(=O)c1cn(C)c2c1ccc1cc(Cl)c(Cl)cc12`, the TGI in the assay on MDA-N was determined as 36 µM; in the assay with MDA-MB-435 it was 26.4 µM; with A549 NSCLC it was 32.4 µM; in the assay on MDA-MB-231 breast, 29.8 µM; in the assay with COLO 205 colon it was 9.58 µM; in the assay with KM12 colon, 20.8 µM. The TGI was 38.3 µM with SF-295 CNS, 8.32 µM in the assay with HL-60(TB) leukemia, 32.3 µM in the assay with SN12C renal and 28.7 µM in the assay on SK-MEL-5 melanoma.

Usually TGI stands for the concentration at which net growth stops. Low values mean more potent growth arrest, high ones less potent growth arrest. Broadly, the GI50 is the concentration giving 50% growth inhibition.
